According to patent US11795204B2 (Zealand Pharma A/S, priority 2012, dated 2023):
Square brackets hold non-standard residues; d marks the D form. Peptide text beside a SMILES is read from it. Dab = NCC[C@H](N)C(=O)O; Aib = CC(C)(N)C(=O)O

Legend:
physchem = settings: pH 7.5
Method: A stock solution of the test peptide (2 mg/ml; determined by measurement of the absorption of the solution at 280 nm, and using the theoretical extension coefficient based on the content of tryptophan and tyrosine in the peptide) in demineralized water adjusted to pH 2.5 with HCl was prepared, and aliquots were diluted 1:1 in 100 mM acetate buffer (pH 4.0) and 100 mM phosphate buffer (pH 7.5), respectively, and loaded in a standard flat-bottom, non-sterile 96-well UV Microplate. The absorbance of samples (single samples, n=1) at 280 and 325 nm was measured in an absorbance-based plate reader, which was preheated to ambient temperature.

[1] = Chemical stability assessment (RP-HPLC normalized purity); assay type: physicochemical; settings: for Normalized purity pH 4.0 after 14 days: 1 mg/ml in 50 mM acetate buffer pH 4.0, 40° C.; for Normalized purity pH 7.5 after 14 days: 1 mg/ml in 50 mM phosphate buffer pH 7.5, 40° C.
Method: Samples were placed in glass vials and incubated at 40° C. The samples were analysed by reverse-phase HPLC on a C18 column with gradient elution using an acetonitrile/trifluoroacetic acid/water eluent system. The area-percentage (area-%) of the main peak after incubation time T=t (relative to time T=0) was detected by UV spectrometry at 220 nm. The purity was first determined as follows: Purity(area-%)=(area of main peak/total area of all peaks)×100. […] Normalized purity values in Table 2 were determined after 14 days of incubation.

human Glucagon-R = biological target: T1, human Glucagon-R (Homo sapiens, UniProt P47871); experiment: Glucagon receptor assay (cAMP induction, AlphaScreen); assay type: cell-based; settings: HEK293 cells expressing the human Glucagon-R, 15 min at 37° C., read-out: GCG-R EC50 in vitro
T1 construct: expressed in transfected cells
Method: The 5′-end primers additionally encoded a near-Kozak consensus sequence to ensure efficient translation. […] 48 hr after transfection, cells were seeded for limited dilution cloning and selected with 1 mg/ml G418 in the culture medium.
On the day of analysis, growth medium was removed and the cells were washed once with […] of the included Assay buffer with IBMX. Cells were incubated in […] Assay buffer/IBMX containing increasing concentrations of test peptides for 15 min at 37° C. Then the peptides/Assay buffer was removed and cells were lysed by addition of […] Lysis buffer pr. well and incubation for at least 10 min at room temperature. From each well […] cell lysate was transferred to a 384-well OptiPlate and mixed with Donor and Acceptor beads and incubated for 1 h at room temperature. The cAMP content was measured on an Envision plate reader.

T1 sequence (P47871 26-477): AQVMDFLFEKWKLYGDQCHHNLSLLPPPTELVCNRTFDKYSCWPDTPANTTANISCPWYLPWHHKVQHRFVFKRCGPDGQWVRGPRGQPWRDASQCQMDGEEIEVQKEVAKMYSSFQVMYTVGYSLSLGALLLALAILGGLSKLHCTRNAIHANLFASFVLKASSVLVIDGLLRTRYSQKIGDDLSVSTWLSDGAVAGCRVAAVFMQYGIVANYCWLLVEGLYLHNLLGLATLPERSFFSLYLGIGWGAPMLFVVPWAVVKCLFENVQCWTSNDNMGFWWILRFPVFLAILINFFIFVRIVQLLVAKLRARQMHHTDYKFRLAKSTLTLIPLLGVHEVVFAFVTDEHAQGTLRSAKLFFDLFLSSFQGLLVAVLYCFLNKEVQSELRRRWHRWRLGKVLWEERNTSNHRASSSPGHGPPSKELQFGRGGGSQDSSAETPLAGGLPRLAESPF

Row | Compound | solubility (physchem) [µg/mL] | Normalized purity pH 4.0 after 14 days [1] [%] | Normalized purity pH 7.5 after 14 days [1] [%] | EC50 (human Glucagon-R) [nM]
1 | H-HSQGTFTSDLSKYLDSARAEDFVKWLEST-OH [Compound 11] | ≥ 1000 | 78.6 | 89.9 | 0.11
2 | H-HSQGTFTSDYSKYLDKARAEDFVKWLEST-OH [Compound 3] | ≥ 1000 | 85.0 | 86.5 | 0.03
3 | CC(C)C[C@H](NC(=O)[C@H](Cc1c[nH]c2ccccc12)NC(=O)[C@H](CCCCN)NC(=O)[C@@H](NC(=O)[C@H](Cc1ccccc1)NC(=O)[C@H](CO)NC(=O)[C@H](CCC(=O)O)NC(=O)[C@H](C)NC(=O)[C@H](CCCNC(=N)N)NC(=O)[C@H](C)NC(=O)C(C)(C)NC(=O)[C@H](CC(=O)O)NC(=O)[C@H](CC(C)C)NC(=O)[C@H](Cc1ccc(O)cc1)NC(=O)[C@H](CCCCN)NC(=O)[C@H](CO)NC(=O)[C@H](Cc1ccc(O)cc1)NC(=O)[C@H](CC(=O)O)NC(=O)[C@H](CO)NC(=O)[C@@H](NC(=O)[C@H](Cc1ccccc1)NC(=O)[C@@H](NC(=O)CNC(=O)[C@H](CCC(N)=O)NC(=O)[C@H](CO)NC(=O)[C@@H](N)Cc1c[nH]cn1)[C@@H](C)O)[C@@H](C)O)C(C)C)C(=O)N[C@@H](CCC(=O)O)C(=O)N[C@@H](CO)C(=O)N[C@H](C(=O)O)[C@@H](C)O [Compound 15] (H-HSQGTFTSDYSKYLD[Aib]ARAESFVKWLEST-OH) | ≥ 1000 | 89.1 | 95.1 | 0.03
4 | CC(C)C[C@H](NC(=O)[C@H](Cc1c[nH]c2ccccc12)NC(=O)[C@H](CCC(=O)O)NC(=O)[C@@H](NC(=O)[C@H](Cc1ccccc1)NC(=O)[C@H](CO)NC(=O)[C@H](CCCCN)NC(=O)[C@H](C)NC(=O)[C@H](CCCNC(=N)N)NC(=O)[C@H](C)NC(=O)C(C)(C)NC(=O)[C@H](CC(=O)O)NC(=O)[C@H](CC(C)C)NC(=O)[C@H](Cc1ccc(O)cc1)NC(=O)[C@H](CCCCN)NC(=O)[C@H](CO)NC(=O)[C@H](Cc1ccc(O)cc1)NC(=O)[C@H](CC(=O)O)NC(=O)[C@H](CO)NC(=O)[C@@H](NC(=O)[C@H](Cc1ccccc1)NC(=O)[C@@H](NC(=O)CNC(=O)[C@H](CCC(N)=O)NC(=O)[C@H](CO)NC(=O)[C@@H](N)Cc1c[nH]cn1)[C@@H](C)O)[C@@H](C)O)C(C)C)C(=O)N[C@@H](CCC(=O)O)C(=O)N[C@@H](CCCCN)C(=O)N[C@H](C(=O)O)[C@@H](C)O [Compound 29] (H-HSQGTFTSDYSKYLD[Aib]ARAKSFVEWLEKT-OH) | ≥ 1000 | 91 | 91.6 | 0.023
5 | CC(=O)NCC[C@H](NC(=O)[C@H](CO)NC(=O)[C@@H](N)Cc1c[nH]cn1)C(=O)NCC(=O)N[C@H](C(=O)N[C@@H](Cc1ccccc1)C(=O)N[C@H](C(=O)N[C@@H](CO)C(=O)N[C@@H](CC(=O)O)C(=O)N[C@@H](Cc1ccc(O)cc1)C(=O)N[C@@H](CO)C(=O)N[C@@H](CCCCN)C(=O)N[C@@H](Cc1ccc(O)cc1)C(=O)N[C@@H](CC(C)C)C(=O)N[C@@H](CC(=O)O)C(=O)NC(C)(C)C(=O)N[C@@H](C)C(=O)N[C@@H](CCCNC(=N)N)C(=O)N[C@@H](C)C(=O)N[C@@H](CCC(=O)O)C(=O)N[C@@H](CO)C(=O)N[C@@H](Cc1ccccc1)C(=O)N[C@H](C(=O)N[C@@H](CCCCN)C(=O)N[C@@H](Cc1c[nH]c2ccccc12)C(=O)N[C@@H](CC(C)C)C(=O)N[C@@H](CCC(=O)O)C(=O)N[C@@H](CO)C(=O)N[C@H](C(=O)O)[C@@H](C)O)C(C)C)[C@@H](C)O)[C@@H](C)O [Compound 32] (H-HS[Dab](Ac)GTFTSDYSKYLD[Aib]ARAESFVKWLEST-OH) | ≥ 1000 | 91.2 | 96.3 | 0.0093
6 | H-HSQGTFTSDYSKYLDEARAKDFVEWLEKT-OH [Compound 5] | ≥ 1000 | 91.8 | 89.6 | 0.17
7 | H-HSQGTFTSDYSKYLDSARAEDFVAWLEST-OH [Compound 4] | ≥ 1000 | 80.5 | 84.6 | 0.34
8 | CC(C)C[C@H](NC(=O)[C@H](Cc1c[nH]c2ccccc12)NC(=O)[C@H](CCCCN)NC(=O)[C@@H](NC(=O)[C@H](Cc1ccccc1)NC(=O)[C@H](CO)NC(=O)[C@H](CCC(=O)O)NC(=O)[C@H](C)NC(=O)[C@H](CCCNC(=N)N)NC(=O)[C@H](C)NC(=O)C(C)(C)NC(=O)[C@H](CC(=O)O)NC(=O)[C@H](CC(C)C)NC(=O)[C@H](Cc1ccc(O)cc1)NC(=O)[C@H](CCCCN)NC(=O)[C@H](CO)NC(=O)[C@H](Cc1ccc(O)cc1)NC(=O)[C@H](CC(=O)O)NC(=O)[C@H](CO)NC(=O)[C@@H](NC(=O)[C@H](Cc1ccccc1)NC(=O)[C@@H](NC(=O)CNC(=O)[C@H](CCC(N)=O)NC(=O)[C@H](C)NC(=O)[C@@H](N)Cc1c[nH]cn1)[C@@H](C)O)[C@@H](C)O)C(C)C)C(=O)N[C@@H](CCC(=O)O)C(=O)N[C@@H](CO)C(=O)N[C@H](C(=O)O)[C@@H](C)O [Compound 20] (H-HAQGTFTSDYSKYLD[Aib]ARAESFVKWLEST-OH) | ≥ 1000 |  |  | 0.24
9 | H-HSQGTFTSDYSKYLDSARAEDFVKWLEET-OH [Compound 2] | ≥ 1000 | 83.5 | 86.2 | 0.18
10 | H-HSQGTFTSDYSKYLDSARAEDFVKWLES-OH [Compound 13] | ≥ 1000 | 84.6 | 88.8 | 0.07
11 | H-HSQGTFTSDYSKYLESARAEDFVKWLEST-OH [Compound 8] | ≥ 1000 |  |  | 0.38
12 | CC(C)C[C@H](NC(=O)[C@H](Cc1c[nH]c2ccccc12)NC(=O)[C@H](CCCCN)NC(=O)[C@@H](NC(=O)[C@H](Cc1ccccc1)NC(=O)[C@H](CCC(=O)O)NC(=O)[C@H](CCC(=O)O)NC(=O)[C@H](C)NC(=O)[C@H](CCCNC(=N)N)NC(=O)[C@H](C)NC(=O)C(C)(C)NC(=O)[C@H](CCC(=O)O)NC(=O)[C@H](CC(C)C)NC(=O)[C@H](Cc1ccc(O)cc1)NC(=O)[C@H](CCCCN)NC(=O)[C@H](CO)NC(=O)[C@H](Cc1ccc(O)cc1)NC(=O)[C@H](CC(=O)O)NC(=O)[C@H](CO)NC(=O)[C@@H](NC(=O)[C@H](Cc1ccccc1)NC(=O)[C@@H](NC(=O)CNC(=O)[C@H](CCC(N)=O)NC(=O)[C@H](CO)NC(=O)[C@@H](N)Cc1c[nH]cn1)[C@@H](C)O)[C@@H](C)O)C(C)C)C(=O)N[C@@H](CCC(=O)O)C(=O)N[C@@H](CO)C(=O)N[C@H](C(=O)O)[C@@H](C)O [Compound 37] (H-HSQGTFTSDYSKYLE[Aib]ARAEEFVKWLEST-OH) | ≥ 1000 |  |  | 0.094
13 | H-HSQGTFTSDYSKYLDVARAESFVKWLEST-OH [Compound 19] | ≥ 1000 |  |  | 0.054
14 | CC(C)C[C@H](NC(=O)[C@H](Cc1c[nH]c2ccccc12)NC(=O)[C@H](CCCCN)NC(=O)[C@@H](NC(=O)[C@H](Cc1ccccc1)NC(=O)[C@H](CCC(=O)O)NC(=O)[C@H](CCC(=O)O)NC(=O)[C@H](C)NC(=O)[C@H](CCCNC(=N)N)NC(=O)[C@H](C)NC(=O)C(C)(C)NC(=O)[C@H](CC(=O)O)NC(=O)[C@H](CC(C)C)NC(=O)[C@H](Cc1ccc(O)cc1)NC(=O)[C@H](CCCCN)NC(=O)[C@H](CO)NC(=O)[C@H](Cc1ccc(O)cc1)NC(=O)[C@H](CC(=O)O)NC(=O)[C@H](CO)NC(=O)[C@@H](NC(=O)[C@H](Cc1ccccc1)NC(=O)[C@@H](NC(=O)CNC(=O)[C@H](CCC(N)=O)NC(=O)[C@H](CO)NC(=O)[C@@H](N)Cc1c[nH]cn1)[C@@H](C)O)[C@@H](C)O)C(C)C)C(=O)N[C@@H](CCC(=O)O)C(=O)N[C@@H](CCC(=O)O)C(=O)N[C@H](C(=O)O)[C@@H](C)O [Compound 36] (H-HSQGTFTSDYSKYLD[Aib]ARAEEFVKWLEET-OH) | ≥ 1000 |  |  | 0.01
